Results from US20260224716A1, “PTH ANALOGS FOR THE TREATMENT OF HYPOPARATHYROIDISM” (priority 2020, published 2026).
*1 amine or outer side, *2 acyl side, *3 side chain or, on linkers, in order; H or OH if unused. Where a SMILES comes first, the peptide text is derived from it. Side-chain parts run from the residue outwards. [ ]: non-standard residue; d: D form. The star is where a group is joined. C18 diacid = O=C(O)CCCCCCCCCCCCCCCCC(=O)*; γGlu = O=C(O)[C@H](CCC(=O)[*:2])N[*:1]; AEEA = NCCOCCOCC(=O)O; Sar = CNCC(=O)O

Key:
[1] = Pharmacokinetics of A8 PTH prodrugs in monkeys, single subcutaneous dose (Example 8); format: in vivo, cynomolgus monkeys; conditions: single SC dose 25 nmol/kg, FIGS. 7A, 7B
Description: The pharmacokinetic profile of PTH analogues following a single subcutaneous dose to cynomolgus monkeys and an evaluation of the pharmacodynamic response of serum calcium and phosphorus was investigated. A total of six monkey were used in this test 2 males and 4 females ranging in age from 2-4 years old at beginning of the study and having a weight of at least 2.5 kg.
Animals were assigned to groups as noted in the Table 6 below. Animals were dosed by subcutaneous injection. Dose administration was staggered. The Group 1
male was dosed once, and the remaining two Group 1 females and all Group 2 animals were dosed once, approximately four days later. First day of dosing was designated as Study Day (SD) 1 for each animal. The dose volume was 0.3 mL/kg. Individual dose volumes were calculated based on the animals' most recently recorded body weight. […]
Pharmacokinetic mean concentration-time data was analyzed using non-compartmental methods (Phoenix® WinNonlin® Version 7.0 or higher) based on the route of administration. The following parameters were calculated whenever possible and as data allows: Cmax, Tmax, and AUC. […]
Results from these pharmacokinetic (PK) studies are provided in FIGS. 7A and 7B wherein the concentration of the administered prodrug form and its activate drug form (produced after in vivo non-enzymatic cleavage of the dipeptide prodrug element) were measured over time.

[2] = Rate of model dipeptide cleavage from hexapeptide in PBS (HPLC, LC-MS); format: physicochemical; conditions: buffer
Description: The solution was incubated at 37° C.
The flow rate was 1 ml/min.

## CC[C@H](C)[C@H](NC(=O)[C@H](CCC(=O)O)NC(=O)[C@H](CO)NC(=O)[C@@H](NC(=O)[C@H](CO)NC(=O)CN(C)C(=O)[C@H](N)CCCCNC(=O)CC[C@H](NC(=O)COCCOCCNC(=O)COCCOCCNC(=O)CC[C@H](NC(=O)CCCCCCCCCCCCCCCCC(=O)O)C(=O)O)C(=O)O)C(C)C)C(=O)N[C@@H](CCC(N)=O)C(=O)N[C@@H](CC(C)C)C(=O)N[C@@H](C)C(=O)N[C@@H](Cc1c[nH]cn1)C(=O)N[C@@H](CC(N)=O)C(=O)N[C@@H](CC(C)C)C(=O)NCC(=O)N[C@@H](CCCCN)C(=O)N[C@@H](Cc1c[nH]cn1)C(=O)N[C@@H](CC(C)C)C(=O)N[C@@H](CC(N)=O)C(=O)N[C@@H](CO)C(=O)N[C@@H](CCSC)C(=O)N[C@@H](CCC(=O)O)C(=O)N[C@@H](CCCNC(=N)N)C(=O)N[C@H](C(=O)N[C@@H](CCC(=O)O)C(=O)N[C@@H](Cc1c[nH]c2ccccc12)C(=O)N[C@@H](CC(C)C)C(=O)N[C@@H](CCCNC(=N)N)C(=O)N[C@@H](CCCCN)C(=O)N[C@@H](CCCCN)C(=O)N[C@@H](CC(C)C)C(=O)N[C@@H](CCC(N)=O)C(=O)N[C@@H](CC(=O)O)C(=O)N[C@H](C(=O)N[C@@H](Cc1c[nH]cn1)C(=O)N[C@@H](CCCCNC(=O)CC[C@H](NC(=O)COCCOCCNC(=O)COCCOCCNC(=O)CC[C@H](NC(=O)CCCCCCCCCCCCCCCCC(=O)O)C(=O)O)C(=O)O)C(=O)O)C(C)C)C(C)C [SEQ ID NO: 95] (H-[dK]([γGlu-AEEA-AEEA-γGlu-C18 diacid])[Sar]SVSEIQLAHNLGKHLNSMERVEWLRKKLQDVHK([γGlu-AEEA-AEEA-γGlu-C18 diacid])-OH)
[1]
  plasma concentration versus singly fatty acylated prodrug SEQ ID: 94: higher concentration that is sustained for a longer period
[2]
  half-life at 1 mg/ml: > 20.8 days
